The text below walks through data of the supplement of paper PMC4862054.

Holding throughout (details): incubation time: 72 h
The subject of assay [1] is HCC1143. The assay is described as follows: normalised viability (% of control), CellTiter-Blue; higher = more viable cells (about 100 = DMSO control). As to the method:
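DSRT, CellTiter-Blue viability, 72 h incubation. Signal is normalised to DMSO and benzethonium chloride controls. Value is the normalised response at dose 3.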

Assay [2] relates to CAL-85-1. Nature of the assay: drug sensitivity score (DSS), CellTiter-Glo (DSS (AUC-based score)); higher = stronger drug effect (viability inhibition or cytotoxicity); extreme values may be limits of the assay. In a few lines: (§1)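 Breast cancer cell lines were seeded in 20 µl suspension into 384-well plates already holding compound and incubated for 72 h. Each compound was tested at 5 concentrations in 10-fold steps across its own 10,000-fold range. Plates were normalised to 0.1 % DMSO and a positive kill control after CellTox Green and then CellTiter-Glo readings. The area under the fitted dose-response curve served as the basis for the drug sensitivity score.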

Assay [3] concerns MFM-223. Described as above. In a few lines:
as §1

The subject of assay [4] is BT-549. The assay is described as above. In a few lines:
as §1

For assay [5], the system named is HDQ-P1. The description is as above. In a few lines:
as §1

In assay [6] the test system is MCF-10A. Described as above. The essentials:
as §1

The test system of assay [7] is HCC1937. The description is as above. In a few lines:
as §1

Assay [8] deals with SK-BR-3. The description is as above. The essentials: as §1
Assay [9] has as its system DU-4475. The description is as above. In a few lines: as §1
Assay [10] has as its system CAL-120. Described as above. In a few lines: as §1
Assay [11] has as its system CAL-148. The description is as above. The essentials: as §1
The test system of assay [12] is HCC1599. Described as above. In a few lines:
as §1

For assay [13], the system named is MDA-MB-453. Described as above. The essentials: as §1
Assay [14] deals with MDA-MB-468. The description is as above. The essentials: as §1
Assay [15] deals with MDA-MB-436. The assay is described as above. The essentials: as §1
Assay [16] concerns BT-474. The description is as above. In a few lines: as §1
For assay [17], the system named is HCC1143. The assay is described as above. The essentials: as §1
Assay [18] has as its system CAL-51. Described as above. The essentials: as §1
Assay [19] has as its system MDA-MB-231. The assay is described as above. In a few lines:
as §1

The subject of assay [20] is Hs578T. Described as above. In a few lines: as §1

Turning to `Cc1ccc(C(=O)N(CCCN)[C@@H](c2oc3cc(Cl)ccc3c(=O)c2Cc2ccccc2)C(C)C)cc1`, the normalised viability in assay [1] (10 nM) was 46.6%. Further, the drug sensitivity score in assay [2], in [3], in assay [4], in assay [5], in assay [6] and in [7] was 0 throughout. Moreover, the drug sensitivity score in assay [8], in assay [9], in assay [10], in assay [11], in assay [12] and in assay [13] was 0 each time. The drug sensitivity score in [14] turned out to be 0; in assay [15] it was 0; in assay [16], 0; in assay [17] it was 0; in [18], 9.66; in [19], 0. In [20], this compound gave a drug sensitivity score of 0.

In the case of `NC(=O)Nc1cc(-c2cccc(F)c2)sc1C(=O)N[C@H]1CCCNC1` [AZD 7762], the normalised viability in assay [1] (10 nM) is 105%.

Turning to `CO[C@H]1/C=C\C=C(/C)C(=O)NC2=CC(=O)C(NCCN(C)C)=C(C[C@@H](C)C[C@H](OC)[C@H](O)[C@@H](C)/C=C(\C)[C@@H]1OC(N)=O)C2=O` [Alvespimycin], the normalised viability in assay [1] (10 nM) came to 86.1%. In addition, the drug sensitivity score in assay [2] is 13.9; in [3] it was 13.1; in assay [4], 16.1; in assay [5], 14; in assay [6] it was 14.9; in assay [7] it was 12.6. Further, the drug sensitivity score in [8] was 14.5; in assay [9], 17.6; in assay [10], 8.6; in [11], 13.3; in assay [12], 4.92; in assay [13], 15.3. Moreover, the drug sensitivity score in assay [14] was determined as 11.9; in assay [15], 13.1; in assay [16], 11.6; in [17], 12.1; in assay [18] it was 13.4; in assay [19], 13.3. For the same compound, in assay [20], the drug sensitivity score is 10.6.

`CCC1(c2ccc(N)cc2)CCC(=O)NC1=O` (centres undefined) [Aminoglutethimide]: the normalised viability in assay [1] (100 nM) was found to be 113%. In addition, the drug sensitivity score in assay [2], in [3], in assay [4], in assay [5], in [6] and in [7] was 0 in each case. The drug sensitivity score in [8], in assay [9], in assay [10], in assay [11], in assay [12] and in assay [13] was 0 throughout. Also, the drug sensitivity score in assay [14], in assay [15], in [16], in [17], in assay [18] and in [19] was 0 each time. In addition, in assay [20], the drug sensitivity score was 0.

`NCC(=O)CCC(=O)O` [Aminolevulinic acid]: in assay [1] (100 nM), the normalised viability was 88.9%.

As for `CCN(CCCOc1ccc2c(Nc3cc(CC(=O)Nc4cccc(F)c4)[nH]n3)ncnc2c1)CCOP(=O)(O)O` [Barasertib], in [1] (10 nM), the normalised viability came to 111%.

`Cn1c(CCCC(=O)O)nc2cc(N(CCCl)CCCl)ccc21` [Bendamustine]: in [1] (100 nM), the normalised viability is 105%. In addition, the drug sensitivity score in assay [2], in assay [3], in [4], in assay [5], in [6] and in assay [7] was 0 in each case. Moreover, the drug sensitivity score in assay [8], in assay [9], in [10], in assay [11], in [12] and in assay [13] was 0 throughout. In addition, the drug sensitivity score in [14], in assay [15], in [16], in [17], in assay [18] and in [19] was 0 throughout. In addition, the drug sensitivity score in [20] was 0.

For `C=C(c1ccc(C(=O)O)cc1)c1cc2c(cc1C)C(C)(C)CCC2(C)C` [Bexarotene], the normalised viability in [1] (100 nM) worked out at 115%. Besides, the drug sensitivity score in assay [2], in [3], in assay [4], in assay [5], in assay [6] and in assay [7] was 0 each time. Moreover, the drug sensitivity score in assay [8] stood at 2.44; in [9], 0; in [10], 0; in assay [11], 0; in [12] it was 9; in [13], 0. In addition, the drug sensitivity score in assay [14] turned out to be 0; in [15] it was 0; in assay [16], 1.51; in [17] it was 0; in assay [18], 0; in [19], 0. The compound further displayed a drug sensitivity score in [20] of 0.

With `CC(=O)Nc1ccc(C(=O)Nc2ccccc2N)cc1` [CI-994], in assay [1] (10 nM), the normalised viability came to 111%.

Take `COc1cc2nccc(Oc3ccc(NC(=O)C4(C(=O)Nc5ccc(F)cc5)CC4)cc3)c2cc1OC` [Cabozantinib]: the normalised viability in [1] (10 nM) came out at 81.3%. Also, the drug sensitivity score in [2], in [3], in assay [4], in assay [5], in assay [6] and in assay [7] was 0 throughout. The drug sensitivity score in assay [8], in assay [9], in assay [10], in [11], in [12] and in assay [13] was 0 each time. Further, the drug sensitivity score in assay [14] stood at 0; in assay [15] it was 0; in [16] it was 1.14; in [17], 0; in assay [18] it was 0; in [19], 0. This compound also showed a drug sensitivity score in assay [20] of 0.
